Data: ChEMBL document CHEMBL5104193, “Hypoxia-Activated Prodrugs with Dual COX-2/CA Inhibitory Effects on Attenuating Cardiac Inflammation under Hypoxia” (J Med Chem, 2022)
The source made the active and inactive calls. The rule behind the calls is not given here.

Legend:
H9c2 [1] = assay: Protection against LPS/ hypoxia induced cell injury in rat H9c2 cells assessed as recovery of cell viability at 1 to 10 uM by CCK-8 assay; format: functional, cell-based; details: dose 1-10 µM
H9c2 [2] = assay: (§1) Protection against LPS/hypoxia induced apoptosis in rat H9c2 cells assessed as reduction in necrotic cells at 10 umol/L incubated for 4 hrs under hypoxia condition by AnnexinV-FITC/propidium iodide staining based flow cytometry analysis (reference value: 31.02%); format: functional; design: scale not given: the % may be the effect or the level left; details: dose 10 µmol/L, at 10 µM
H9c2 [3] = assay: as §1, with “condition in presence of 2-(4-(5-oxo-5-((5-sulfamoyl-1,3,4-thiadiazol-2-yl)amino)pentyl)-1H-1,2,3-triazol-1-yl)acetic acid” for “condition”; format: functional; design: scale not given: the % may be the effect or the level left; details: dose 10 µmol/L, at 10 µM
H9c2 [4] = assay: Protection against LPS/hypoxia induced apoptosis in rat H9c2 cells assessed as reduction in red fluorescence in presence of 2-(4-(5-oxo-5-((5-sulfamoyl-1,3,4-thiadiazol-2-yl)amino)pentyl)-1H-1,2,3-triazol-1-yl)acetic acid by confocal microscopy analysis; format: functional, cell-based
H9c2 [5] = assay: Protection against LPS/hypoxia induced apoptosis in rat H9c2 cells assessed as reduction in green fluorescence in presence of 2-(4-(5-oxo-5-((5-sulfamoyl-1,3,4-thiadiazol-2-yl)amino)pentyl)-1H-1,2,3-triazol-1-yl)acetic acid by confocal microscopy analysis; format: functional, cell-based
[6] = Stability of the compound assessed as NTR (unknown origin) mediated hydrolysis by measuring half life by UV spectrophotometry; format: ADME; details: human
H9c2 [7] = assay: Anti-inflammatory activity in LPS/hypoxia induced rat H9c2 cells assessed as reduction of IL-6 protein expression at 10 uM by Western blot analysis; format: functional, cell-based
H9c2 [8] = assay: Anti-inflammatory activity in LPS/hypoxia induced rat H9c2 cells assessed as reduction of IL-1 beta protein expression at 10 uM by Western blot analysis; format: functional, cell-based
H9c2 [9] = assay: Anti-inflammatory activity in LPS/hypoxia induced rat H9c2 cells assessed as reduction of IL-6 protein expression at 10 uM in presence of 2-(4-(5-oxo-5-((5-sulfamoyl-1,3,4-thiadiazol-2-yl)amino)pentyl)-1H-1,2,3-triazol-1-yl)acetic acid by Western blot analysis; format: functional, cell-based
H9c2 [10] = assay: Anti-inflammatory activity in LPS/hypoxia induced rat H9c2 cells assessed as increase in VEGF expression at 10 uM in presence of 2-(4-(5-oxo-5-((5-sulfamoyl-1,3,4-thiadiazol-2-yl)amino)pentyl)-1H-1,2,3-triazol-1-yl)acetic acid by Western blot analysis; format: functional, cell-based
H9c2 [11] = assay: Anti-inflammatory activity in rat H9c2 cells assessed as downregulation of cytochrome C expression at 10 uM by Western blot analysis; format: functional, cell-based
H9c2 [12] = assay: Anti-inflammatory activity in rat H9c2 cells assessed as inhibition of endogenous IL-6 protein expression in presence of 2-(4-(5-oxo-5-((5-sulfamoyl-1,3,4-thiadiazol-2-yl)amino)pentyl)-1H-1,2,3-triazol-1-yl)acetic acid by DAPI staining based immunofluorescence analysis; format: functional, cell-based
H9c2 [13] = assay: Protection against LPS/hypoxia induced cell injury in rat H9c2 cells assessed as recovery of cell viability at 10 uM by CCK-8 assay; format: functional, cell-based
H9c2 [14] = assay: Antiinflammatory activity in LPS/hypoxia induced CA9 knockdown rat H9c2 cells assessed as decrease in IL-1 beta protein level at 10 uM by Western blot analysis; format: functional, cell-based
H9c2 [15] = assay: Antiinflammatory activity in LPS/hypoxia induced CA9 knockdown rat H9c2 cells assessed as decrease in IL-6 protein level at 10 uM by Western blot analysis; format: functional, cell-based
H9c2 [16] = assay: Protection against LPS/hypoxia induced cell injury in rat H9c2 cells assessed as recovery of cell viability in presence of 2-(4-(5-oxo-5-((5-sulfamoyl-1,3,4-thiadiazol-2-yl)amino)pentyl)-1H-1,2,3-triazol-1-yl)acetic acid by CCK-8 assay (reference value: 69.0%); format: functional
H9c2 [17] = assay: Protection against LPS/hypoxia induced cell injury in rat H9c2 cells assessed as recovery of cell viability in presence of 2-(4-(5-oxo-5-((5-sulfamoyl-1,3,4-thiadiazol-2-yl)amino)pentyl)-1H-1,2,3-triazol-1-yl)acetic acid and Na2WO4 by CCK-8 assay; format: functional, cell-based
H9c2 [18] = assay: Reversal of LPS/hypoxia induced mitochondrial membrane potential loss in rat H9c2 cells in presence of 2-(4-(5-oxo-5-((5-sulfamoyl-1,3,4-thiadiazol-2-yl)amino)pentyl)-1H-1,2,3-triazol-1-yl)acetic acid by JC-1 dye based flow cytometry analysis; format: functional, cell-based
H9c2 [19] = assay: Reversal of ATP level in LPS/hypoxia induced rat H9c2 cell in presence of 2-(4-(5-oxo-5-((5-sulfamoyl-1,3,4-thiadiazol-2-yl)amino)pentyl)-1H-1,2,3-triazol-1-yl)acetic acid and Na2WO4 by multimode plate reader analysis; format: functional, cell-based
H9c2 [20] = assay: Inhibition of intracellular ROS level in LPS/hypoxia induced rat H9c2 cells in presence of 2-(4-(5-oxo-5-((5-sulfamoyl-1,3,4-thiadiazol-2-yl)amino)pentyl)-1H-1,2,3-triazol-1-yl)acetic acid by DCFH-DA probe based fluorescence confocal microscopy analysis; format: functional, cell-based
Rattus norvegicus [21] = assay: (§2) Antiinflammatory activity against LPS/talc powder induced pericarditic Wistar rat assessed as reduction in torsion T wave inversion at 20 mg/kg, ip pretreated for 2 hrs followed by LPS/tal powder stimulation measured after 48 hrs in presence of 2-(4-(5-oxo-5-((5-sulfamoyl-1,3,4-thiadiazol-2-yl)amino)pentyl)-1H-1,2,3-triazol-1-yl)acetic acid by ECG analysis; format: functional, organism-based; details: time 50.0 hrs
Rattus norvegicus [22] = assay: as §2, with “U” for “torsion T”, “flattening” for “inversion”; format: functional, organism-based; details: time 50.0 hrs
Rattus norvegicus [23] = assay: as §2, with “heart swelling” for “torsion T wave inversion”, “acid” for “acid by ECG analysis”; format: functional, organism-based; details: time 50.0 hrs
Rattus norvegicus [24] = assay: as §2, with “elimination of pericardial effusion” for “reduction in torsion T wave inversion”, “acid” for “acid by ECG analysis”; format: functional, organism-based; details: time 50.0 hrs
Rattus norvegicus [25] = assay: as §2, with “in” for “against”, “rat model” for “rat”, “increase” for “reduction”, “CK-MB level in serum” for “torsion T wave inversion”, “(reference value: 4140+/-256.23 U/L)” for “by ECG analysis”; format: functional; details: time 50 hrs
Rattus norvegicus [26] = assay: as §2, with “in” for “against”, “increase” for “reduction”, “cTNI level in serum” for “torsion T wave inversion”, “(reference value: 0.167+/-0.025 ng/ml)” for “by ECG analysis”; format: functional; details: time 50 hrs
[27] = Toxicity in Wistar rat assessed as change in ALT level in presence of 2-(4-(5-oxo-5-((5-sulfamoyl-1,3,4-thiadiazol-2-yl)amino)pentyl)-1H-1,2,3-triazol-1-yl)acetic acid; details: in vivo
[28] = Toxicity in Wistar rat assessed as change in BUN level in presence of 2-(4-(5-oxo-5-((5-sulfamoyl-1,3,4-thiadiazol-2-yl)amino)pentyl)-1H-1,2,3-triazol-1-yl)acetic acid; details: in vivo

In the case of COc1ccc2c(c1)c(CC(=O)O)c(C)n2C(=O)c1ccc(Cl)cc1 [INDOMETHACIN], the Activity (H9c2 [1]) is reported as “Active”, the Activity (H9c2 [2]) is reported as 23.96% and the Activity (H9c2 [3]) is reported as 9.61%. For the same compound, the Activity (H9c2 [4]) was “Active”, the Activity (H9c2 [5]) was “Active” and the t1/2 [6] was 21.6 min. The Activity (H9c2 [7]) was “Active”, the Activity (H9c2 [8]) was “Active” and the Activity (H9c2 [9]) was “Active”. The Activity (H9c2 [10]) was “Active”, the Activity (H9c2 [11]) was “Active” and the Activity (H9c2 [12]) was “Active”. The Activity (H9c2 [13]) was “Active”, the Activity (H9c2 [14]) was “Active” and the Activity (H9c2 [15]) was “Active”. The Activity (H9c2 [16]) was 91.8%, the Activity (H9c2 [17]) was “Active” and the Activity (H9c2 [18]) was “Active”. For the same compound, the Activity (H9c2 [19]) was “Active”, the inhibition (H9c2 [20]) was “Active” and the Activity (Rattus norvegicus [21]) was “Active”. The Activity (Rattus norvegicus [22]) was “Active”, the Activity (Rattus norvegicus [23]) was “Active” and the Activity (Rattus norvegicus [24]) was “Active”. The Activity (Rattus norvegicus [25]) was 2620 U/L, the Activity (Rattus norvegicus [26]) was 0.121 ng/mL and the Activity [27] was “Toxic”. For the same compound, the Activity [28] was “Toxic”.
